Source: BindingDB's records for patent WO2022070069 (JANSSEN BIOTECH, INC., 2022)

Target: Dihydroorotate dehydrogenase (quinone), mitochondrial (Homo sapiens, UniProt Q02127)
Test: DHODH enzymatic assay
Description: To detect DHODH enzyme activities, dichloroindophenol (DCIP) is added as the final electron acceptor in the assay. DCIP can accept electrons from the reduced coenzyme Q generated in the assay, or from dihydroorotate (DHO) via FMN by binding presumably to the ubiquinone pocket. DCIP solutions are blue, with an intense absorbance around 600 nm, but becomes colorless upon reduction (J. Biol. Chem. (1986) 261, 11386). The assay buffer contained […], pH 7.5, 150 mM NaCl, 0.5 mM EDTA, and 0.1% Triton X-100 in MilliQ water. Substrate consisting of 20 mM DHO, 5mM CoQ6, and 1mM DCIP in assay buffer, initiates the reaction. The assay is run in end-point mode by quenching the reaction with the potent DHODH inhibitor brequinar. Absorbance measurements were obtained using the BMG Phera Star plate-reading spectrophotomer. Purified human DHODH was purchased from Proteros (cat. No. PR-0044). Chemicals were purchased from Sigma-Aldrich, Teknova, and Avanti Polar Lipids. Liquid handling was performed using Labcyte Echo and Formulatrix Tempest.

Chain of Dihydroorotate dehydrogenase (quinone), mitochondrial (Q02127 whole entry): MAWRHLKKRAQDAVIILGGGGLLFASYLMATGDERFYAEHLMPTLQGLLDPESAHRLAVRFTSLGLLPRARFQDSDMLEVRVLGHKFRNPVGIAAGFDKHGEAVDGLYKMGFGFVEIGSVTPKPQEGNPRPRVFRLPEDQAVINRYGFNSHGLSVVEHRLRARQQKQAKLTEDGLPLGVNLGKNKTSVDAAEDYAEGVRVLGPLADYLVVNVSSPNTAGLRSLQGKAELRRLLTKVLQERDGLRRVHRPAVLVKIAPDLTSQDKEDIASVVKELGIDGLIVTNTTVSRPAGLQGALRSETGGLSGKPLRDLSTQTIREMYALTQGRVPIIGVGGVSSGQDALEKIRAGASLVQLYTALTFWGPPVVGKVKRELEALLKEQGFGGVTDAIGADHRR

SMILES | IC50
Cc1cn(-c2cc(O[C@@H](C)C(F)(F)F)c(C(=O)Nc3c(F)cccc3Cl)cc2F)nc1[C@@H](C)O (relative stereo) [WO2022070069, Example 1] | 0.48 nM
Cc1cn(-c2cc(O[C@@H](C)C(F)(F)F)c(C(=O)Nc3c(F)cccc3Cl)cc2F)nc1[C@H](C)O (relative stereo) [WO2022070069, Example 2] | 0.3 nM
Cc1cn(-c2cc(O[C@@H](C)C(F)(F)F)c(C(=O)Nc3c(F)cccc3Cl)cc2F)nc1C(C)(C)O [WO2022070069, Example 3] | 0.5 nM

Next, values leading:

IC50 | SMILES
0.22 nM | Cc1cn(-c2cc(O[C@@H](C)C(F)(F)F)c(C(=O)Nc3c(C)n[nH]c3Cl)cc2F)nc1[C@@H](C)O (relative stereo) [WO2022070069, Example 4]
0.26 nM | Cc1cn(-c2cc(O[C@@H](C)C(F)(F)F)c(C(=O)Nc3c(C)n[nH]c3Cl)cc2F)nc1[C@H](C)O (relative stereo) [WO2022070069, Example 5]
0.38 nM | Cc1cn(-c2cc(O[C@@H](C)C(F)(F)F)c(C(=O)Nc3c(C)n[nH]c3Cl)cc2F)nc1C(C)(C)O [WO2022070069, Example 6]
